The record followed here is US20220275389A1, “MODIFIED EXOPOLYSACCHARIDE RECEPTORS FOR RECOGNIZING AND STRUCTURING MICROBIOTA” (Aarhus Universitet, priority 2019, published 2022).

“Also recorded” adds a separate entry of the source. Like-named read-outs stand apart in the source and are kept apart here.

Assay [1] has as its target Lotus japonicus EPR3 ectodomain (EPR3 ED, residues 33-232), wild type, EPR3 SEQ ID NO: 61 (Lotus japonicus, UniProt D3KU53). Put plainly: Microscale thermophoresis (MST) binding of EPS ligands to EPR3 ectodomain (ED). Particulars: 100 nM EPR3 ED, pH 7.8, 25° C.; for Kd: 95% confidence interval, read-out: equilibrium dissociation constant (Kd). The method, then:
Expression and purification of L. japonicus ecotype Gifu EPR3 ectodomain (ED) was performed as described previously (Kawaharada, Y et al. Nature 2015 523: 308-312). In brief, DNA encoding residues 33-232 of EPR3 (corresponding to the EPR3 ED) containing an N-terminal gp67 secretion signal and a C-terminal 6×His-tag was codon-optimized for insect cell expression (GenScript) and inserted into the pOET2 vector (Oxford Expression Technologies). Baculoviruses, used for infecting Sf9 cells cultured in suspension in serum-free HyClone SFX-Insect medium (FisherScientific), were obtained using the flashBAC GOLD system (OET). Five days post inoculation, the media was dialyzed against buffer containing 50 mM Tris-HCl pH 8.0 and 200 mM NaCl before centrifugation and loaded on a HisTrap excel affinity column (GE Healthcare). The eluted protein was dialyzed against buffer containing 50 mM Tris-HCl pH 8.0 and 200 mM NaCl, and further purified on a HisTrap HP affinity column (GE Healthcare). For crystallization, the EPR3 ED was treated with PNGase F (1:15 w/w ratio) for 1 hour at room temperature and overnight at 4° C. to remove N-linked oligosaccharides. EPR3 ED was then purified on a Mono S 5/50 column (GE Healthcare) and eluted with a linear gradient of 50-300 mM NaCl and 50 mM Tris-HCl, pH 7.0. Both glycosylated and de-glycosylated EPR3 ED were finally purified on a Superdex 75 10/300 column (GE Healthcare) in gel filtration buffer containing 50 mM KH2-PO4 pH 7.8 and 200 mM NaCl (for microscale thermophoresis binding experiments) or 50 mM Tris-HCl pH 8.0 and 200 mM NaCl (for crystallization).
Low molecular mass (LMM) exopolysaccharides (EPS) were isolated from various rhizobial strains including Mesorhizobium loti strain R7A ndvB6, R. leguminosarum bv. viciae 3855 (this work) and Sinorhizobium meliloti B578 (Griffins, J. S. et al. Mol. Microbiol. 2008 69: 479-490) that were deficient in cyclic glucan production were grown on minimal media with glucose as the sole source of carbon. The LMM EPS was isolated from the bacterial culture supernatants and purified via sequential precipitation with 6 volumes of 99.8% EtOH (v/v), followed by 9 volumes EtOH (v/v) and purified by size exclusion chromatography (SEC) as previously described (Muszyński, A. et al. J. Biol. Chem. 2016 291: 20946-20961). O-acetyl groups were removed chemically by mild overnight treatment of native EPS samples with 12.5% NH4OH (Muszyński, A. et al. J. Biol. Chem. 2016 291: 20946-20961). […] The glycosyl composition and linkage was determined as previously described (Muszyński, A. et al. J. Biol. Chem. 2016 291: 20946-20961). […]

The target of the next assay is L. japonicus EPR3a ED. Description: Microscale thermophoresis (MST) binding to EPR3a ED. Conditions: for binding of EPR3a ED to polysaccharide (detectable or not): FIGS. 11I-11J. The method, then:
Purified EPR3 was fluorescently labeled using the Monolith NT.115TM Protein Labelling Kit Blue NHS (NanoTemper Technologies) according to the manufacturer's instructions. All experiments were performed in MST buffer (50 mM K2PO4, pH 7.8, 500 mM NaCl, and 0.05% Tween-20) with a constant concentration of EPR3 ED (100 nM and ˜50% labelling efficiency) and dilution series of the various ligands. The samples were incubated for 30 minutes at room temperature before loaded into standard capillaries for measurements on a Monolith NT.115 TM instrument (NanoTemper Technologies) at 25° C., with blue LED power of 50% and MST power of 20%. To accurately measure the experimental errors and ensure data reproducibility, all MST binding experiments were performed with at least three independently purified samples of EPR3. At the highest ligand concentrations, weak ligand binding to the fluorescent label itself was occasionally observed. To accurately account for this unspecific binding ligand binding to 50 nM free fluorescent label was measured and this small background was subtracted contribution from all the respective MST binding measurements. The competition experiments were performed by pre-incubating labeled EPR3 ED with 250 μM R7A EPS or R7A exoU EPS and assessing the binding of EPR3 ED to titrated R7A exoU EPS or R7A EPS, respectively. Binding data were processed with the GraphPad Prism 7 software (GraphPad Software, Inc.) and the equilibrium dissociation constants (Kd) values (95% confidence interval) were calculated using the sigmoidal dose-response equations.
The EPR3a ED was expressed in insect cells, and the protein was purified as described in Example 1 (FIG. 11D).
MST experiments were performed as described in Example 2 (FIG. 11C, FIGS. 11E-11J).

Assay [2] concerns Lotus japonicus EPR3a ectodomain (EPR3a ED), wild type, EPR3a SEQ ID NO: 62. Put plainly: Microscale thermophoresis (MST) binding of polysaccharides to EPR3a ectodomain (ED). Particulars: for Kd: FIGS. 11E-11H, preparation of FIG. 11D. The method, then: Low molecular mass (LMM) exopolysaccharides (EPS) were isolated from various rhizobial strains including Mesorhizobium loti strain R7A ndvB6, R. leguminosarum bv. viciae 3855 (this work) and Sinorhizobium meliloti B578 (Griffins, J. S. et al. Mol. Microbiol. 2008 69: 479-490) that were deficient in cyclic glucan production were grown on minimal media with glucose as the sole source of carbon. The LMM EPS was isolated from the bacterial culture supernatants and purified via sequential precipitation with 6 volumes of 99.8% EtOH (v/v), followed by 9 volumes EtOH (v/v) and purified by size exclusion chromatography (SEC) as previously described (Muszyński, A. et al. J. Biol. Chem. 2016 291: 20946-20961). O-acetyl groups were removed chemically by mild overnight treatment of native EPS samples with 12.5% NH4OH (Muszyński, A. et al. J. Biol. Chem. 2016 291: 20946-20961). Native and de-O-acetylated samples were verified via matrix-assisted laser desorption/ionization time of flight mass spectrometry (MALDI-TOF MS) analysis on Applied Biosystems AB SCIEX TOF/TOF 5800 system in either negative or positive reflector ionization modes. The glycosyl composition and linkage was determined as previously described (Muszyński, A. et al. J. Biol. Chem. 2016 291: 20946-20961).
Purified EPR3 was fluorescently labeled using the Monolith NT.115TM Protein Labelling Kit Blue NHS (NanoTemper Technologies) according to the manufacturer's instructions. […] To accurately account for this unspecific binding ligand binding to 50 nM free fluorescent label was measured and this small background was subtracted contribution from all the respective MST binding measurements. […] Binding data were processed with the GraphPad Prism 7 software (GraphPad Software, Inc.) and the equilibrium dissociation constants (Kd) values (95% confidence interval) were calculated using the sigmoidal dose-response equations. […]
Background: Microscale thermophoresis detects binding through changes in fluorescence in a small temperature gradient.

Where [3] appears, read: FIGS. 11E-11H, n=3, EPR3a ED preparation of FIG. 11D (figure legend), read-out: equilibrium dissociation constant (Kd).

Lotus japonicus EPR3 ectodomain (EPR3 ED, residues 33-232), wild type, EPR3 SEQ ID NO: 61, sequence (D3KU53 entry or part of it): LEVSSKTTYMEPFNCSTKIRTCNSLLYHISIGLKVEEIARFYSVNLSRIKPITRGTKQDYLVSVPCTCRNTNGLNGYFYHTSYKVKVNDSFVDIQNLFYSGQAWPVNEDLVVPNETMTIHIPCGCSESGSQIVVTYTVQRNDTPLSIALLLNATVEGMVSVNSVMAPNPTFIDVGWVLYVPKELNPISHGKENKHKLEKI

In the case of `CC(=O)N[C@H]1[C@H](O[C@H]2[C@H](O)[C@@H](NC(C)=O)[C@H](O[C@H]3[C@H](O)[C@@H](NC(C)=O)C(O)O[C@@H]3CO)O[C@@H]2CO)O[C@H](CO)[C@@H](O[C@@H]2O[C@H](CO)[C@@H](O[C@@H]3O[C@H](CO)[C@@H](O[C@@H]4O[C@H](CO)[C@@H](O)[C@H](O)[C@H]4NC(C)=O)[C@H](O)[C@H]3NC(C)=O)[C@H](O)[C@H]2NC(C)=O)[C@@H]1O` (stereo partly shown) [C06, Chitohexose], the binding entry in assay [1] is “unable to bind”.

As to “(2,3/3-OAc)β-D-RibfA-(1→4)-a-D-GlcpA-(1→4)-β-D-Glcp-(1→6)-(3OAc)β-D-Glcp-(1→6)-(2OAc)β-D-Glcp-(1→4)-(2/3OAc)β-D-Glcp-(1→4)-β-D-Glcp-(1→3)-β-D-Galp [R7A EPS] [listing 1 of 2 here]”, the equilibrium dissociation constant (Kd) came out at 25.6 µM at L. japonicus EPR3a ED (FIG. 11C, R^2=0.98, read-out: equilibrium dissociation constant (Kd)) and 44.4 ± 11.2 µM on L. japonicus EPR3a ED (setting [3]).

Take S. meliloti EPS [listing 1 of 2 here]: in assay [1], the Kd is 222 ± 102 µM.

As to S. meliloti EPS [listing 2 of 2 here], on L. japonicus EPR3a ED (setting [3]), the Kd was 937 ± 389 µM.

Consider maltodextrin, for which the “binding of EPR3a ED to polysaccharide (detectable or not)” value in the assay with L. japonicus EPR3a ED (n=3) is reported as “did not bind; also recorded: absence of binding”.

On to `CC(=O)N[C@H]1[C@H](O[C@H]2[C@H](O)[C@@H](NC(C)=O)C(O)O[C@@H]2CO)O[C@H](CO)[C@@H](O[C@@H]2O[C@H](CO)[C@@H](O[C@@H]3O[C@H](CO)[C@@H](O)[C@H](O)[C@H]3NC(C)=O)[C@H](O)[C@H]2NC(C)=O)[C@@H]1O` (stereo partly shown) [chitotetraose], for which the “binding of EPR3a ED to polysaccharide (detectable or not)” value in the assay with L. japonicus EPR3a ED (n=3) was “absence of binding”; in the assay with L. japonicus EPR3a ED (n=3, listed as chitin), “did not bind”. The binding result in assay [2] (FIG. 11I, n=3) is “did not bind; also recorded: absence of binding”.

“(2,3/3-OAc)β-D-RibfA-(1→4)-a-D-GlcpA-(1→4)-β-D-Glcp-(1→6)-(3OAc)β-D-Glcp-(1→6)-(2OAc)β-D-Glcp-(1→4)-(2/3OAc)β-D-Glcp-(1→4)-β-D-Glcp-(1→3)-β-D-Galp [R7A EPS] [listing 2 of 2 here]”: in assay [1], the Kd was 38.1 ± 7.5 µM.

In the case of `O=C(O)[C@H]1O[C@@H](O[C@H]2[C@H](O)[C@@H](O)[C@@H](O[C@H]3[C@H](O)[C@@H](O)[C@H](OC[C@H]4O[C@@H](OC[C@H]5O[C@@H](O[C@H]6[C@H](O)[C@@H](O)[C@H](O[C@H]7[C@H](O)[C@@H](O)[C@H](O[C@H]8[C@@H](O)[C@@H](CO)OC(O)[C@@H]8O)O[C@@H]7CO)O[C@@H]6CO)[C@H](O)[C@@H](O)[C@@H]5O)[C@H](O)[C@@H](O)[C@@H]4O)O[C@@H]3CO)O[C@@H]2C(=O)O)[C@H](O)[C@@H]1O` (stereo partly shown) [R7A deOAc-EPS], the Kd was 31.3 ± 11.7 µM in assay [1]; 57.2 ± 15.6 µM in assay [2] (n=3, figure legend, read-out: equilibrium dissociation constant (Kd)); 57.2 ± 15.6 µM in assay [2] (read-out: equilibrium dissociation constant of Kd).

Usually Kd stands for the constant that tells how readily two partners part at equilibrium.
